# “And” between values parts separate entries of the source, which are not always exact repeats. Identical values can stand only once. Like-named read-outs stand apart in the source and are kept apart here.
# Assay: Plasma pharmacokinetics of oral NMP by LCMSMS
# Type: in vivo, human
# Settings: plasma, plasma
# Protocol: Blood samples were taken from patients before NMP and at one, two, four, eight and 24 h post dose. Plasma samples (20 μl) were prepared by adding five volumes of methanol containing deuterated internal standard. The samples were vortexed then centrifuged, and the supernatant was transferred to a vial and injected onto the LCMSMS. The LCMSMS system consisted of a Shimadzu UHPLC with a SCIEX 6500QTrap, a KinetexC18 (3 × 50 mm, 2.6 μm) column and using a gradient of 0.1% formic acid and acetonitrile. The initial conditions were 0.5 ml/min and 2% acetonitrile; this was held for 1 min then increased to 20% acetonitrile at 2 min then increased to 70% acetonitrile and held for 0.5 min. Equilibration time was 0.5 min. MRMs for NMP were 100 → 58, 100 → 69, 100 → 41 and for the internal standard d9NMP 109 → 62, […]. PK analysis was performed using Pkanalix (version 2021R1. Antony, France: Lixoft SAS, 2021).
# [1] = oral 25 mg, patient RMH-01 occasion 6
# [2] = oral 50 mg, average of N = 5 profiles
# [3] = oral 50 mg, individual profiles, patient RMH-01 occasions 1-5
# [4] = oral 100 mg, average of N = 5 profiles
# [5] = oral 100 mg, individual profiles, patient RMH-02 occasions 1-5
# [6] = oral 200 mg, average of N = 8 profiles
# [7] = oral 200 mg, individual profiles (PMC-03, MON-04, MON-06, MON-07, PMC-08)
# [8] = oral 200 mg, individual profiles (PMC-03, MON-04, PMC-05, MON-06, MON-07, PMC-08)
# [9] = oral 300 mg, average of N = 3 profiles
# [10] = oral 300 mg, individual profiles (PMC-09, MON-10, MON-11)
# [11] = oral 400 mg, average of N = 2 profiles
# [12] = oral 400 mg, individual profiles (MON-11 occasion 2, MON-12)
# [13] = oral 500 mg, patient MON-11 occasion 3
# [14] = oral 600 mg, patient MON-11 occasion 4
# [15] = oral 700 mg, patient MON-11 occasion 5
# [16] = oral 800 mg, patient MON-11 occasion 6
smiles,measurement,setting,value
"CN1CCCC1=O [NMP, N-methyl-2-pyrrolidone]",Cmax,"human, po, 700 mg, oral 700 mg, patient MON-11 occasion 5, read-out: Cmax",12400 ng/mL
same,half-life,"human, po, 700 mg, oral 700 mg, patient MON-11 occasion 5, read-out: Half-life (converted)",2.35 h
same,Tmax,"human, po, 700 mg, oral 700 mg, patient MON-11 occasion 5, read-out: Tmax",0.5 h
same,Cmax,"human, po, 800 mg, 800 mg dose level, oral, one patient, read-out: highest Cmax achieved",~168 µM
same,AUC,"human, po, 800 mg, oral 800 mg, patient MON-11 occasion 6, read-out: AUC",90300 ng·h/mL
same,Cmax,"human, po, 800 mg, oral 800 mg, patient MON-11 occasion 6, read-out: Cmax",16700 ng/mL
same,half-life,"human, po, 800 mg, oral 800 mg, patient MON-11 occasion 6, read-out: Half-life (converted)",1.75 h
same,Tmax,"human, po, 800 mg, oral 800 mg, patient MON-11 occasion 6, read-out: Tmax",1 h
same,Cmax,"human, po, 800 mg, oral, one patient, read-out: Maximum plasma concentration (Cmax), highest achieved",16700 ng/mL
same,half-life,"human, po, all dose levels 25-800 mg oral, N = 28 profiles, read-out: Half-life, Overall Average (converted)",1.55 h
same,AUC,"human, po, all dose levels 25-800 mg oral, N = 29 profiles, read-out: AUC, Overall Average",16900 ng·h/mL
same,Cmax,"human, po, all dose levels 25-800 mg oral, N = 29 profiles, read-out: Cmax, Overall Average",5290 ng/mL
same,Tmax,"human, po, all dose levels 25-800 mg oral, N = 29 profiles, read-out: Tmax, Overall Average",~0.5 h
same,CL/F,[1],16.65 L⋅h⁻¹
same,V/F,[1],20.83 L
same,"CL/F, Average",[2],23.62 L⋅h⁻¹
same,"V/F, Average",[2],36.62 L
same,AUC,[3],1.86 h⋅mg⋅L⁻¹ and 1.88 h⋅mg⋅L⁻¹ and 2.09 h⋅mg⋅L⁻¹ and 2.18 h⋅mg⋅L⁻¹
same,CL/F,[3],17.68 L⋅h⁻¹ and 26.86 L⋅h⁻¹ and 26.66 L⋅h⁻¹ and 23.93 L⋅h⁻¹ and 22.97 L⋅h⁻¹
same,Cmax,[3],1.24 mg⋅L⁻¹ and 1.25 mg⋅L⁻¹ and 1.04 mg⋅L⁻¹ and 1.06 mg⋅L⁻¹
same,V/F,[3],30.85 L and 38.66 L and 41.02 L and 35.88 L and 36.67 L
same,half-life,[3],0.99 h and 1.07 h and 1.04 h and 1.11 h
same,"CL/F, Average",[4],14.04 L⋅h⁻¹
same,"V/F, Average",[4],36.98 L
same,AUC,[5],7.25 h⋅mg⋅L⁻¹ and 6.95 h⋅mg⋅L⁻¹ and 7.61 h⋅mg⋅L⁻¹ and 6.88 h⋅mg⋅L⁻¹
same,CL/F,[5],14.35 L⋅h⁻¹ and 13.79 L⋅h⁻¹ and 14.4 L⋅h⁻¹ and 13.13 L⋅h⁻¹ and 14.53 L⋅h⁻¹
same,Cmax,[5],2.51 mg⋅L⁻¹ and 2.52 mg⋅L⁻¹ and 2.43 mg⋅L⁻¹ and 2.65 mg⋅L⁻¹
same,V/F,[5],34.92 L and 41.77 L and 37.5 L and 34.02 L and 36.67 L
same,"CL/F, Average",[6],25.52 L⋅h⁻¹
same,"V/F, Average",[6],49.77 L
same,CL/F,[7],31.82 L⋅h⁻¹ and 24.02 L⋅h⁻¹ and 25.05 L⋅h⁻¹ and 20.34 L⋅h⁻¹ and 18.2 L⋅h⁻¹ and 9.1 L⋅h⁻¹ and 57.76 L⋅h⁻¹ and 17.85 L⋅h⁻¹
same,V/F,[7],64.35 L and 55.72 L and 43.19 L and 37.65 L and 36.79 L and 26.02 L and 87.19 L and 47.25 L
same,AUC,[8],6.29 h⋅mg⋅L⁻¹ and 8.33 h⋅mg⋅L⁻¹ and 7.98 h⋅mg⋅L⁻¹ and 9.83 h⋅mg⋅L⁻¹ and 5.49 h⋅mg⋅L⁻¹ and 10.99 h⋅mg⋅L⁻¹ and 21.99 h⋅mg⋅L⁻¹ and 3.46 h⋅mg⋅L⁻¹ and 11.21 h⋅mg⋅L⁻¹
same,Cmax,[8],2.33 mg⋅L⁻¹ and 3.98 mg⋅L⁻¹ and 4.43 mg⋅L⁻¹ and 5.05 mg⋅L⁻¹ and 2.05 mg⋅L⁻¹ and 4.95 mg⋅L⁻¹ and 7.26 mg⋅L⁻¹ and 2.64 mg⋅L⁻¹ and 3.79 mg⋅L⁻¹
same,"CL/F, Average",[9],15.62 L⋅h⁻¹
same,"V/F, Average",[9],33.93 L
same,AUC,[10],32.55 h⋅mg⋅L⁻¹ and 12.73 h⋅mg⋅L⁻¹ and 21.3 h⋅mg⋅L⁻¹
same,CL/F,[10],9.22 L⋅h⁻¹ and 23.57 L⋅h⁻¹ and 14.08 L⋅h⁻¹
same,Cmax,[10],6.89 mg⋅L⁻¹ and 6.81 mg⋅L⁻¹
same,V/F,[10],22.09 L and 38.59 L and 41.1 L
same,half-life,[10],1.13 h and 2.02 h
same,"CL/F, Average",[11],19.53 L⋅h⁻¹
same,"V/F, Average",[11],42.44 L
same,AUC,[12],15.99 h⋅mg⋅L⁻¹
same,CL/F,[12],14.03 L⋅h⁻¹ and 25.02 L⋅h⁻¹
same,Cmax,[12],7.63 mg⋅L⁻¹
same,V/F,[12],35.95 L and 48.93 L
same,half-life,[12],1.36 h
same,CL/F,[13],12.33 L⋅h⁻¹
same,V/F,[13],35.2 L
same,CL/F,[14],10.59 L⋅h⁻¹
same,V/F,[14],33.11 L
same,CL/F,[15],12.16 L⋅h⁻¹
same,V/F,[15],41.26 L
same,CL/F,[16],8.86 L⋅h⁻¹
same,V/F,[16],22.43 L
